According to ChEMBL document CHEMBL4219219, “The synthesis and antistaphylococcal activity of N-sulfonaminoethyloxime derivatives of dehydroabietic acid” (Bioorg Med Chem Lett, 2018):
≈ marks a conversion by molar mass, not a printed value. Calls of active or inactive are those of the source. The rule behind the calls is not given here.

Legend:
[1] = system: Staphylococcus aureus; experiment: Antistaphylococcal activity against erythromycin-resistant Staphylococcus aureus NRS-70 after 18 hrs by two-fold serial dilution method; format: functional; conditions: NRS-70, 18 h
[2] = system: Staphylococcus aureus; experiment: Antistaphylococcal activity against aminoglycosides/tetracycline-resistant Staphylococcus aureus NRS-1 after 18 hrs by two-fold serial dilution method; format: functional; conditions: NRS-1, 18 h
[3] = system: Staphylococcus aureus; experiment: Antistaphylococcal activity against Staphylococcus aureus Newman after 18 hrs by two-fold serial dilution method; format: functional
[4] = system: Staphylococcus aureus; experiment: Antistaphylococcal activity against linezolid-resistant Staphylococcus aureus NRS-271 containing phage type E-MRSA 15 after 18 hrs by two-fold serial dilution method; format: functional; conditions: NRS-271, 18 h
[5] = system: Escherichia coli; experiment: Antibacterial activity against Escherichia coli AB1157 at 50 ug/ml after 18 hrs by two-fold serial dilution method; format: functional, organism-based
[6] = system: Staphylococcus aureus; experiment: Antistaphylococcal activity against gentamicin-resistant Staphylococcus aureus NRS-108 after 18 hrs by two-fold serial dilution method; format: functional; conditions: NRS-108, 18 h
[7] = system: Staphylococcus aureus; experiment: Antistaphylococcal activity against oxacillin/tetracycline-resistant Staphylococcus aureus NRS-100 after 18 hrs by two-fold serial dilution method; format: functional; conditions: NRS-100, 18 h

Structure (SMILES)	MIC [1]	MIC [2]	MIC [3]	MIC [4]	Activity [5]	MIC [6]	MIC [7]
CC(C)c1cc2c(cc1Br)[C@@]1(C)CCC[C@@](C)(C(=O)O)[C@@H]1C/C2=N\OCCNS(=O)(=O)c1ccc(Br)cc1	0.78 to 1.56 µg/mL (≈ 1.16 to 2.33 µM)	0.78 to 1.56 µg/mL (≈ 1.16 to 2.33 µM)	0.78 to 1.56 µg/mL (≈ 1.16 to 2.33 µM)	0.78 to 1.56 µg/mL (≈ 1.16 to 2.33 µM)	inactive	0.78 to 1.56 µg/mL (≈ 1.16 to 2.33 µM)	0.78 to 1.56 µg/mL (≈ 1.16 to 2.33 µM)
CC(C)c1cc2c(cc1Br)[C@@]1(C)CCC[C@@](C)(C(=O)O)[C@@H]1C/C2=N\OCCNS(=O)(=O)c1ccccc1Cl	0.78 to 1.56 µg/mL (≈ 1.25 to 2.49 µM)	1.56 to 3.13 µg/mL (≈ 2.49 to 5 µM)	0.78 to 1.56 µg/mL (≈ 1.25 to 2.49 µM)	1.56 to 3.13 µg/mL (≈ 2.49 to 5 µM)	inactive	1.56 to 3.13 µg/mL (≈ 2.49 to 5 µM)	1.56 to 3.13 µg/mL (≈ 2.49 to 5 µM)
CC(C)c1cc2c(cc1Br)[C@@]1(C)CCC[C@@](C)(C(=O)O)[C@@H]1C/C2=N\OCCNS(=O)(=O)c1cccc(Br)c1	0.78 to 1.56 µg/mL (≈ 1.16 to 2.33 µM)	1.56 to 3.13 µg/mL (≈ 2.33 to 4.67 µM)	0.78 to 1.56 µg/mL (≈ 1.16 to 2.33 µM)	1.56 to 3.13 µg/mL (≈ 2.33 to 4.67 µM)	inactive	0.78 to 1.56 µg/mL (≈ 1.16 to 2.33 µM)	1.56 to 3.13 µg/mL (≈ 2.33 to 4.67 µM)
CC(C)c1ccc2c(c1)CC[C@H]1[C@](C)(C(=O)O)CCC[C@]21C [DEHYDROABIETIC ACID]	12.5 to 25 µg/mL (≈ 41.6 to 83.2 µM)	12.5 to 25 µg/mL (≈ 41.6 to 83.2 µM)	12.5 to 20 µg/mL (≈ 41.6 to 66.6 µM)	12.5 to 25 µg/mL (≈ 41.6 to 83.2 µM)	–	12.5 to 25 µg/mL (≈ 41.6 to 83.2 µM)	12.5 to 25 µg/mL (≈ 41.6 to 83.2 µM)
CC(C)c1cc2c(cc1Br)[C@@]1(C)CCC[C@@](C)(C(=O)O)[C@@H]1C/C2=N\OCCNS(=O)(=O)c1ccc(C(C)(C)C)cc1	–	–	3.13 to 6.25 µg/mL (≈ 4.83 to 9.65 µM)	–	inactive	–	–
CC(C)c1cc2c(cc1Br)[C@@]1(C)CCC[C@@](C)(C(=O)O)[C@@H]1C/C2=N\OCCNS(=O)(=O)c1ccc(Br)c(C(F)(F)F)c1	0.78 to 1.56 µg/mL (≈ 1.06 to 2.11 µM)	0.78 to 1.56 µg/mL (≈ 1.06 to 2.11 µM)	0.78 to 1.56 µg/mL (≈ 1.06 to 2.11 µM)	0.78 to 1.56 µg/mL (≈ 1.06 to 2.11 µM)	inactive	0.78 to 1.56 µg/mL (≈ 1.06 to 2.11 µM)	0.78 to 1.56 µg/mL (≈ 1.06 to 2.11 µM)
CC(C)c1cc2c(cc1Br)[C@@]1(C)CCC[C@@](C)(C(=O)O)[C@@H]1C/C2=N\OCCNS(=O)(=O)C1CC1	–	–	6.25 to 12.5 µg/mL (≈ 11.3 to 22.5 µM)	–	inactive	–	–
CCCS(=O)(=O)NCCO/N=C1\C[C@H]2[C@](C)(C(=O)O)CCC[C@]2(C)c2cc(Br)c(C(C)C)cc21	–	–	12.5 to 25 µg/mL (≈ 22.4 to 44.8 µM)	–	inactive	–	–
Cc1ccc(S(=O)(=O)NCCO/N=C2\C[C@H]3[C@](C)(C(=O)O)CCC[C@]3(C)c3cc(Br)c(C(C)C)cc32)cc1	1.56 to 3.13 µg/mL (≈ 2.58 to 5.17 µM)	3.13 to 6.25 µg/mL (≈ 5.17 to 10.3 µM)	1.56 to 3.13 µg/mL (≈ 2.58 to 5.17 µM)	3.13 to 6.25 µg/mL (≈ 5.17 to 10.3 µM)	inactive	1.56 to 3.13 µg/mL (≈ 2.58 to 5.17 µM)	3.13 to 6.25 µg/mL (≈ 5.17 to 10.3 µM)
CC(C)c1cc2c(cc1Br)[C@@]1(C)CCC[C@@](C)(C(=O)O)[C@@H]1C/C2=N\OCCNS(=O)(=O)c1ccc2ccccc2c1	1.56 to 3.13 µg/mL (≈ 2.43 to 4.88 µM)	3.13 to 6.25 µg/mL (≈ 4.88 to 9.74 µM)	1.56 to 3.13 µg/mL (≈ 2.43 to 4.88 µM)	3.13 to 6.25 µg/mL (≈ 4.88 to 9.74 µM)	inactive	1.56 to 3.13 µg/mL (≈ 2.43 to 4.88 µM)	3.13 to 6.25 µg/mL (≈ 4.88 to 9.74 µM)
CC(C)c1cc2c(cc1Br)[C@@]1(C)CCC[C@@](C)(C(=O)O)[C@@H]1C/C2=N\OCCNS(=O)(=O)c1cccc2cccnc12	1.56 to 3.13 µg/mL (≈ 2.43 to 4.87 µM)	1.56 to 3.13 µg/mL (≈ 2.43 to 4.87 µM)	1.56 to 3.13 µg/mL (≈ 2.43 to 4.87 µM)	3.13 to 6.25 µg/mL (≈ 4.87 to 9.73 µM)	inactive	3.13 to 6.25 µg/mL (≈ 4.87 to 9.73 µM)	3.13 to 6.25 µg/mL (≈ 4.87 to 9.73 µM)
CN[C@H](CC(C)C)C(=O)N[C@H]1C(=O)N[C@@H](CC(N)=O)C(=O)N[C@H]2C(=O)N[C@H]3C(=O)N[C@H](C(=O)N[C@H](C(=O)O)c4cc(O)cc(O)c4-c4cc3ccc4O)[C@H](O)c3ccc(c(Cl)c3)Oc3cc2cc(c3O[C@@H]2O[C@H](CO)[C@@H](O)[C@H](O)[C@H]2O[C@H]2C[C@](C)(N)[C@H](O)[C@H](C)O2)Oc2ccc(cc2Cl)[C@H]1O [VANCOMYCIN]	0.2 to 0.39 µg/mL (≈ 0.138 to 0.269 µM)	1.56 to 3.13 µg/mL (≈ 1.08 to 2.16 µM)	0.78 to 1.56 µg/mL (≈ 0.538 to 1.08 µM)	0.39 to 0.78 µg/mL (≈ 0.269 to 0.538 µM)	–	0.39 to 0.78 µg/mL (≈ 0.269 to 0.538 µM)	0.39 to 0.78 µg/mL (≈ 0.269 to 0.538 µM)
CC(C)c1cc2c(cc1Br)[C@@]1(C)CCC[C@@](C)(C(=O)O)[C@@H]1C/C2=N\OCCNS(=O)(=O)c1cccnc1	–	–	3.13 to 6.25 µg/mL (≈ 5.28 to 10.5 µM)	–	inactive	–	–
CC(C)c1cc2c(cc1Br)[C@@]1(C)CCC[C@@](C)(C(=O)O)[C@@H]1C/C2=N\OCCNS(=O)(=O)c1cccs1	–	–	–	–	inactive	–	–
CC(C)c1cc2c(cc1Br)[C@@]1(C)CCC[C@@](C)(C(=O)O)[C@@H]1C/C2=N\OCCNS(=O)(=O)c1ccccc1	0.78 to 1.56 µg/mL (≈ 1.32 to 2.64 µM)	1.56 to 3.13 µg/mL (≈ 2.64 to 5.29 µM)	1.56 to 3.13 µg/mL (≈ 2.64 to 5.29 µM)	1.56 to 3.13 µg/mL (≈ 2.64 to 5.29 µM)	inactive	1.56 to 3.13 µg/mL (≈ 2.64 to 5.29 µM)	1.56 to 3.13 µg/mL (≈ 2.64 to 5.29 µM)
CC(C)c1cc2c(cc1Br)[C@@]1(C)CCC[C@@](C)(C(=O)O)[C@@H]1C/C2=N\OCCNS(=O)(=O)c1cccc(C(F)(F)F)c1	0.78 to 1.56 µg/mL (≈ 1.18 to 2.37 µM)	1.56 to 3.13 µg/mL (≈ 2.37 to 4.75 µM)	0.39 to 0.78 µg/mL (≈ 0.591 to 1.18 µM)	1.56 to 3.13 µg/mL (≈ 2.37 to 4.75 µM)	inactive	0.78 to 1.56 µg/mL (≈ 1.18 to 2.37 µM)	1.56 to 3.13 µg/mL (≈ 2.37 to 4.75 µM)
CC(C)c1cc2c(cc1Br)[C@@]1(C)CCC[C@@](C)(C(=O)O)[C@@H]1C/C2=N\OCCNS(=O)(=O)c1ccc(Cl)s1	0.78 to 1.56 µg/mL (≈ 1.23 to 2.47 µM)	1.56 to 3.13 µg/mL (≈ 2.47 to 4.95 µM)	1.56 to 3.13 µg/mL (≈ 2.47 to 4.95 µM)	1.56 to 3.13 µg/mL (≈ 2.47 to 4.95 µM)	inactive	1.56 to 3.13 µg/mL (≈ 2.47 to 4.95 µM)	1.56 to 3.13 µg/mL (≈ 2.47 to 4.95 µM)
CC(C)c1cc2c(cc1Br)[C@@]1(C)CCC[C@@](C)(C(=O)O)[C@@H]1C/C2=N\OCCNS(=O)(=O)c1ccccc1Br	1.56 to 3.13 µg/mL (≈ 2.33 to 4.67 µM)	1.56 to 3.13 µg/mL (≈ 2.33 to 4.67 µM)	1.56 to 3.13 µg/mL (≈ 2.33 to 4.67 µM)	1.56 to 3.13 µg/mL (≈ 2.33 to 4.67 µM)	inactive	1.56 to 3.13 µg/mL (≈ 2.33 to 4.67 µM)	1.56 to 3.13 µg/mL (≈ 2.33 to 4.67 µM)
CC(C)c1cc2c(cc1Br)[C@@]1(C)CCC[C@@](C)(C(=O)O)[C@@H]1C/C2=N\OCCNS(=O)(=O)c1c(Cl)cccc1Cl	0.78 to 1.56 µg/mL (≈ 1.18 to 2.36 µM)	1.56 to 3.13 µg/mL (≈ 2.36 to 4.74 µM)	1.56 to 3.13 µg/mL (≈ 2.36 to 4.74 µM)	1.56 to 3.13 µg/mL (≈ 2.36 to 4.74 µM)	inactive	1.56 to 3.13 µg/mL (≈ 2.36 to 4.74 µM)	1.56 to 3.13 µg/mL (≈ 2.36 to 4.74 µM)
CC(C)c1cc2c(cc1Br)[C@@]1(C)CCC[C@@](C)(C(=O)O)[C@@H]1C/C2=N\OCCNS(=O)(=O)c1ccc(Cl)nc1	–	–	3.13 to 6.25 µg/mL (≈ 4.99 to 9.97 µM)	–	inactive	–	–
CC(C)c1cc2c(cc1Br)[C@@]1(C)CCC[C@@](C)(C(=O)O)[C@@H]1C/C2=N\OCCNS(=O)(=O)c1ccccc1C(F)(F)F	–	–	> 50 µg/mL	–	inactive	–	–
CN(C)[C@@H]1C(O)=C(C(N)=O)C(=O)[C@@]2(O)C(O)=C3C(=O)c4c(O)cccc4[C@@](C)(O)[C@H]3C[C@@H]12 [TETRACYCLINE]	< 0.2 µg/mL	> 25 µg/mL	< 0.2 µg/mL	< 0.2 µg/mL	–	< 0.2 µg/mL	< 0.2 µg/mL
CC(C)c1cc2c(cc1Br)[C@@]1(C)CCC[C@@](C)(C(=O)O)[C@@H]1C/C2=N\OCCNS(=O)(=O)c1cc(F)c(F)c(F)c1	–	–	> 50 µg/mL	–	inactive	–	–
CC(C)c1cc2c(cc1Br)[C@@]1(C)CCC[C@@](C)(C(=O)O)[C@@H]1C/C2=N\OCCNS(=O)(=O)c1c(F)cccc1F	–	–	> 50 µg/mL	–	inactive	–	–
CCS(=O)(=O)NCCO/N=C1\C[C@H]2[C@](C)(C(=O)O)CCC[C@]2(C)c2cc(Br)c(C(C)C)cc21	–	–	12.5 to 25 µg/mL (≈ 23 to 46 µM)	–	inactive	–	–
CC(C)c1cc2c(cc1Br)[C@@]1(C)CCC[C@@](C)(C(=O)O)[C@@H]1C/C2=N\OCCN	–	–	> 50 µg/mL	–	inactive	–	–
COc1ccc(S(=O)(=O)NCCO/N=C2\C[C@H]3[C@](C)(C(=O)O)CCC[C@]3(C)c3cc(Br)c(C(C)C)cc32)cc1	–	–	3.13 to 6.25 µg/mL (≈ 5.04 to 10.1 µM)	–	inactive	–	–
